In the RepoRT retention time repository (doi:10.1016/j.jchromb.2020.122105):
Structures can show the parent of a compound that is named as a salt.

Assays:
Conditions in all cases: stereoisomer not certain
[1] = RP, Waters CORTECS T3, 100 × 2.1 mm, 2.7 µm, 0.3 mL/min, estimated dead time 0.73 min; A: water + 0.1% formic acid, pH 3; B: methanol + 0.1% formic acid, pH 3; gradient (min/%B) 0/0 5/0 25/100 30/100 30.1/0 35/0
[2] = RP, Waters CORTECS T3, 100 × 2.1 mm, 2.7 µm, 0.2 mL/min, estimated dead time 1.1 min; A: water + 0.1% formic acid, pH 3; B: methanol + 0.1% formic acid, pH 3; gradient (min/%B) 0/0 1/0 6/5 30/100 35/100 35.1/0 40/0
[3] = RP, Waters CORTECS T3, 100 × 2.1 mm, 2.7 µm, 0.3 mL/min, estimated dead time 0.73 min; A: water + 0.1% formic acid, pH 3; B: methanol + 0.1% formic acid, pH 3; gradient (min/%B) 0/0 1/0 6/5 30/100 35/100 35.1/0 40/0
[4] = RP, Waters CORTECS T3, 100 × 2.1 mm, 2.7 µm, 0.2 mL/min, estimated dead time 1.1 min; A: water + 0.1% formic acid, pH 3; B: methanol + 0.1% formic acid, pH 3; gradient (min/%B) 0/5 5/5 25/95 25.1/100 35/100 35.1/5 45/5
[5] = RP, Waters CORTECS T3, 100 × 2.1 mm, 2.7 µm, 0.15 mL/min, estimated dead time 1.5 min; A: water + 0.1% formic acid, pH 3; B: methanol + 0.1% formic acid, pH 3; gradient (min/%B) 0/5 5/5 25/95 25.1/100 35/100 35.1/5 45/5
[6] = RP, Waters ACQUITY UPLC BEH C18, 100 × 2.1 mm, 1.7 µm, 0.2 mL/min, estimated dead time 1.1 min; A: water + 0.1% formic acid, pH 3; B: methanol + 0.1% formic acid, pH 3; gradient (min/%B) 0/5 5/5 25/100 30/100 30.1/5 35/5
[7] = RP, Waters CORTECS T3, 100 × 2.1 mm, 2.7 µm, 0.25 mL/min, estimated dead time 0.88 min; A: water + 0.1% formic acid, pH 3; B: methanol + 0.1% formic acid, pH 3; gradient (min/%B) 0/5 5/5 25/95 25.1/100 35/100 35.1/5 45/5
[8] = RP, Waters ACQUITY UPLC BEH C18, 100 × 2.1 mm, 1.7 µm, 0.1 mL/min, estimated dead time 2.2 min; A: water + 0.1% formic acid, pH 3; B: methanol + 0.1% formic acid, pH 3; gradient (min/%B) 0/5 5/5 25/95 25.1/100 35/100 35.1/5 45/5
[9] = HILIC, Thermo Scientific Accucore HILIC, 100 × 2.1 mm, 2.6 µm, 0.5 mL/min, estimated dead time 0.44 min; A: water + 0.1% formic acid + 10 mM ammonium formate, pH 3; B: 5% water + 95% acetonitrile + 0.1% formic acid + 10 mM ammonium formate, pH 3; gradient (min/%B) 0/95 5/95 20/57 25/57 30/95 40/95
[10] = RP, Waters ACQUITY UPLC BEH C18, 100 × 2.1 mm, 1.7 µm, 0.2 mL/min, estimated dead time 1.1 min; A: water + 0.025% formic acid + 20 mM ammonium acetate + 0.055% ammonium hydroxide, pH 7; B: methanol; gradient (min/%B) 0/5 5/5 25/100 30/100 30.1/5 35/5
[11] = HILIC, Merck SeQuant ZIC-HILIC, 150 × 2.1 mm, 5 µm, 0.75 mL/min, estimated dead time 0.44 min; A: water + 0.1% acetic acid + 10 mM ammonium acetate, pH 4; B: 5% water + 95% acetonitrile + 0.1% acetic acid + 10 mM ammonium acetate, pH 4; gradient (min/%B) 0/95 5/95 20/57 25/57 30/95 40/95
[12] = HILIC, Waters XBridge BEH Amide, 100 × 2.1 mm, 2.5 µm, 0.5 mL/min, estimated dead time 0.44 min; A: water + 0.1% acetic acid + 10 mM ammonium acetate, pH 4; B: 5% water + 95% acetonitrile + 0.1% acetic acid + 10 mM ammonium acetate, pH 4; gradient (min/%B) 0/95 5/95 20/57 25/57 30/95 40/95
[13] = HILIC, Merck SeQuant ZIC-HILIC, 150 × 2.1 mm, 5 µm, 0.75 mL/min, estimated dead time 0.44 min; A: water + 10 mM ammonium formate, pH 6; B: 5% water + 95% acetonitrile + 10 mM ammonium formate, pH 6; gradient (min/%B) 0/95 5/95 20/57 25/57 30/95 40/95
[14] = RP, Waters CORTECS T3, 100 × 2.1 mm, 2.7 µm, 0.3 mL/min, estimated dead time 0.73 min; A: water + 0.1% formic acid, pH 3; B: methanol + 0.1% formic acid, pH 3; gradient (min/%B) 0/5 5/5 25/100 30/100 30.1/5 35/5
[15] = RP, Waters CORTECS T3, 100 × 2.1 mm, 2.7 µm, 0.3 mL/min, estimated dead time 0.73 min; A: water + 0.1% formic acid, pH 3; B: methanol + 0.1% formic acid, pH 3; gradient (min/%B) 0/0 5/0 25/100 30/100 30.1/0 35/0; remark: listed apart in the source
[16] = RP, Waters CORTECS T3, 100 × 2.1 mm, 2.7 µm, 0.2 mL/min, estimated dead time 1.1 min; A: water + 0.1% formic acid, pH 3; B: methanol + 0.1% formic acid, pH 3; gradient (min/%B) 0/0 1/0 6/5 30/100 35/100 35.1/0 40/0; remark: listed apart in the source
[17] = RP, Waters CORTECS T3, 100 × 2.1 mm, 2.7 µm, 0.1 mL/min, estimated dead time 2.2 min; A: water + 0.1% formic acid, pH 3; B: methanol + 0.1% formic acid, pH 3; gradient (min/%B) 0/0 1/0 6/5 30/100 35/100 35.1/0 40/0
[18] = RP, Waters CORTECS T3, 100 × 2.1 mm, 2.7 µm, 0.15 mL/min, estimated dead time 1.5 min; A: water + 0.1% formic acid, pH 3; B: methanol + 0.1% formic acid, pH 3; gradient (min/%B) 0/0 1/0 6/5 30/100 35/100 35.1/0 40/0
[19] = RP, Waters CORTECS T3, 100 × 2.1 mm, 2.7 µm, 0.3 mL/min, estimated dead time 0.73 min; A: water + 0.1% formic acid, pH 3; B: methanol + 0.1% formic acid, pH 3; gradient (min/%B) 0/0 1/0 6/5 30/100 35/100 35.1/0 40/0; remark: listed apart in the source
[20] = RP, Waters CORTECS T3, 100 × 2.1 mm, 2.7 µm, 0.25 mL/min, estimated dead time 0.88 min; A: water + 0.1% formic acid, pH 3; B: methanol + 0.1% formic acid, pH 3; gradient (min/%B) 0/0 1/0 6/5 30/100 35/100 35.1/0 40/0
[21] = RP, Waters CORTECS T3, 100 × 2.1 mm, 2.7 µm, 0.1 mL/min, estimated dead time 2.2 min; A: water + 0.1% formic acid, pH 3; B: methanol + 0.1% formic acid, pH 3; gradient (min/%B) 0/5 5/5 25/95 25.1/100 35/100 35.1/5 45/5
[22] = RP, Waters CORTECS T3, 100 × 2.1 mm, 2.7 µm, 0.3 mL/min, estimated dead time 0.73 min; A: water + 0.1% formic acid, pH 3; B: methanol + 0.1% formic acid, pH 3; gradient (min/%B) 0/5 5/5 25/95 25.1/100 35/100 35.1/5 45/5
[23] = RP, Waters ACQUITY UPLC BEH C18, 100 × 2.1 mm, 1.7 µm, 0.1 mL/min, estimated dead time 2.2 min; A: water + 0.1% formic acid, pH 3; B: methanol + 0.1% formic acid, pH 3; gradient (min/%B) 0/5 5/5 25/100 30/100 30.1/5 35/5

Row | Compound | LC retention time [1] [min] | LC retention time [2] [min] | LC retention time [3] [min] | LC retention time [4] [min] | LC retention time [5] [min] | LC retention time [6] [min] | LC retention time [7] [min] | LC retention time [8] [min] | LC retention time [9] [min] | LC retention time [10] [min] | LC retention time [11] [min] | LC retention time [12] [min] | LC retention time [13] [min] | also measured
1 | O=C(O)CCCCCCC(=O)O [SUBERIC ACID] | 13.5 | 16.1 | 14.6 | 19.6 | 15.6 | 14.3 | 13.5 | 18 | 1.39 | – | – | – | – | –
2 | CSCCC(NC=O)C(=O)O [FORMYL-L-METHIONYL PEPTIDE] | 8.31 | 9.43 | 7.57 | 13.3 | 9.18 | 8.3 | 6.13 | 12.3 | 5.85 | 2.14 | 7.68 | – | – | –
3 | Nc1ccccc1S(=O)(=O)O [ANILINE-2-SULFONIC ACID] | 2.13 | 3.02 | 2.13 | 5.88 | 3.09 | 2.68 | 1.89 | 5.22 | 1.05 | 2.03 | – | 1.66 | – | –
4 | O=S(=O)(O)Oc1c[nH]c2ccccc12 [INDOXYL SULFATE] | 8.35 | 9.62 | 7.71 | 13.6 | 9.5 | 8.8 | 6.23 | 12.8 | 0.54 | 5.76 | 3.84 | 0.95 | – | –
5 | O=c1[nH]cnc2c1ncn2C1OC(CO)C(O)C1O (stereo not given) [INOSINE] | – | 6.93 | 5.37 | 10.8 | 4.68 | 3.3 | 2.9 | 2.76 | 4.88 | 1.41 | 8.42 | 7.97 | 8.73 | –
6 | O=C(O)CCCCCC(=O)O [6-CARBOXYHEXANOATE] | 11.3 | 13.3 | 11.7 | 16.9 | 13.1 | 11.9 | 10.9 | 15.6 | 2.01 | – | 11.9 | – | 12.9 | –
7 | N[C@@H](Cc1ccc(O)c([N+](=O)[O-])c1)C(=O)O [3-NITRO-L-TYROSINE] | 8.03 | 8.96 | 7.13 | 12.6 | 8.37 | 6.44 | 5.25 | 10.9 | 9.89 | – | 10.6 | – | 11 | LC retention time [14]: 4.34 min; LC retention time [15]: 7.98 min; LC retention time [16]: 8.81 min; LC retention time [17]: 6.31 min; LC retention time [18]: 10.4 min; LC retention time [19]: 6.9 min; LC retention time [20]: 7.83 min; LC retention time [21]: 10.8 min; LC retention time [22]: 4.27 min; LC retention time [23]: 10.8 min
8 | CC(=O)NCCCC(=O)[O-] [4-ACETAMIDOBUTANOATE] | 3.7 | 5.13 | 3.71 | 9.19 | 3.97 | 3.16 | 2.43 | 6.08 | 2.99 | 1.38 | 8.54 | – | – | –
9 | O=C(O)CCCCCCCC(=O)O [AZELAIC ACID] | 15.4 | 18.4 | 16.9 | 21.8 | 17.6 | 16.3 | 15.6 | 19.9 | 1.1 | 1.41 | 9.72 | – | 7.14 | –
